Laboratory results taken from ChEMBL document CHEMBL5257017, “Small Molecule CXCR3 Antagonists” (J Med Chem, 2016).
Converted amounts (≈) assume the structure as drawn. One block for each molecule: values may come before it.

What was measured:
[1] = Clearance in rat at 10 mg/kg, po or 0.2 mg/kg, iv; type: ADME, organism-based; conditions: in vivo
[2] = Volume of distribution in mouse at 10 mg/kg. po or 0.2 mg/kg, iv; type: ADME, organism-based; conditions: in vivo
[3] = biological target: T1, C-X-C chemokine receptor type 3 (Homo sapiens, UniProt P49682); assay: Antagonist activity at CXCR3 (unknown origin) assessed as reduction in CXCL10 induced calcium flux by flow cytometry
T1 sequence (P49682 whole entry): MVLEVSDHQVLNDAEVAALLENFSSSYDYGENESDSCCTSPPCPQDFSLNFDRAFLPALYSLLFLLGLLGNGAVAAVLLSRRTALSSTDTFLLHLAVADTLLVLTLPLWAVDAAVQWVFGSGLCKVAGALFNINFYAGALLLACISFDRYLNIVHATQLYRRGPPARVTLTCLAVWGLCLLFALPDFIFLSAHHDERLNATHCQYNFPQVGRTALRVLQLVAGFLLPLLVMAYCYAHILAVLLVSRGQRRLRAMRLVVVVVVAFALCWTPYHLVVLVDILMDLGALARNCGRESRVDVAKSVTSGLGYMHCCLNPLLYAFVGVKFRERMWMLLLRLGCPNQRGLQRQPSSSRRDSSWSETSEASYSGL

[4] = biological target: T1, C-X-C chemokine receptor type 3; assay: Antagonist activity at CXCR3 (unknown origin) assessed as reduction in CXCL10 induced calcium flux by FLIPR method
[5] = biological target: T1, C-X-C chemokine receptor type 3; assay: Antagonist activity at CXCR3 (unknown origin) assessed as reduction in CXCL11 induced calcium flux by FLIPR method
[6] = biological target: T1, C-X-C chemokine receptor type 3; assay: Antagonist activity at CXCR3 (unknown origin) assessed as reduction in CXCL10 induced calcium flux by [35S]GTPgammaS binding assay
[7] = biological target: T1, C-X-C chemokine receptor type 3; assay: Displacement of [125I]-CXCL10 from CXCR3 in human PBMC cells; type: cell-based
[8] = AUC in rat at 10 mg/kg, po; type: ADME, organism-based; design: dose 10 mg/kg, route po; conditions: in vivo
[9] = AUC in mouse at 10 mg/kg, po; type: ADME, organism-based; design: dose 10 mg/kg, route po; conditions: in vivo
[10] = Half life in rat at 2.0 mg/kg, po or 0.5 mg/kg, iv; type: ADME, organism-based; conditions: in vivo
[11] = biological target: T1, C-X-C chemokine receptor type 3; assay: Displacement of [125I]-CXCL10 from CXCR3 in human PBMC cells by scintillation proximity assay; type: cell-based
[12] = biological target: T1, C-X-C chemokine receptor type 3; assay: Antagonist activity at CXCR3 (unknown origin) assessed as reduction in CXCL11 induced calcium flux by flow cytometry
[13] = biological target: T1, C-X-C chemokine receptor type 3; assay: Antagonist activity at human CXCR3 assessed as reduction in CXCL11 induced calcium flux by [35S]GTPgammaS binding assay
[14] = Intrinsic clearance in mouse liver microsomes; type: ADME, Microsome
[15] = Lipophilicity, logD of compound at pH 7.4; type: physicochemical; conditions: buffer
[16] = Oral bioavailability in mouse at 10 mg/kg; type: ADME, organism-based; conditions: in vivo
[17] = Clearance in rat at 10 mg/kg, po or 5 mg/kg, iv; type: ADME, organism-based; conditions: in vivo
[18] = Half life in mouse at 10 mg/kg, po or 5 mg/kg, iv; type: ADME, organism-based; conditions: in vivo
[19] = Clearance in mouse at 30 mg/kg, po; type: ADME, organism-based; conditions: in vivo
[20] = Oral bioavailability in mouse at 30 mg/kg; type: ADME, organism-based; conditions: in vivo
[21] = biological target: T2, C-X-C chemokine receptor type 3 (Mus musculus, UniProt O88410); assay: […] of CXCR3 receptor internalization in mouse whole blood in presence of CXCl10 by flow cytometry; type: tissue-based
T2 sequence (O88410 whole entry): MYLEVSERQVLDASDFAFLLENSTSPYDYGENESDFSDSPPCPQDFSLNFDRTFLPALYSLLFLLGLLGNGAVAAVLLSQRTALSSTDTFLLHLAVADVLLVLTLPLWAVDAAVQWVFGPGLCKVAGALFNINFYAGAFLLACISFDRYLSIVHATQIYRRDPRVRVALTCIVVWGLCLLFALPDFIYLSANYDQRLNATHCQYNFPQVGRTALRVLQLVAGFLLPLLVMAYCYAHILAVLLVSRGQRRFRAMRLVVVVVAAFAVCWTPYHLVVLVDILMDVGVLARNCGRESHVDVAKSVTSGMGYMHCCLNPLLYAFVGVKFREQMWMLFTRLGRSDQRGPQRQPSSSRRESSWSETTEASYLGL

[22] = biological target: C-C chemokine receptor type 4 (Homo sapiens) (UniProt P51679); assay: Antagonist activity at CCR4 (unknown origin)
[23] = biological target: T1, C-X-C chemokine receptor type 3; assay: Antagonist activity at CXCR3 (unknown origin)
[24] = biological target: T3, C-X-C chemokine receptor type 2 (Homo sapiens, UniProt P25025); assay: Antagonist activity at CXCR2 (unknown origin)
T3 sequence (P25025 whole entry): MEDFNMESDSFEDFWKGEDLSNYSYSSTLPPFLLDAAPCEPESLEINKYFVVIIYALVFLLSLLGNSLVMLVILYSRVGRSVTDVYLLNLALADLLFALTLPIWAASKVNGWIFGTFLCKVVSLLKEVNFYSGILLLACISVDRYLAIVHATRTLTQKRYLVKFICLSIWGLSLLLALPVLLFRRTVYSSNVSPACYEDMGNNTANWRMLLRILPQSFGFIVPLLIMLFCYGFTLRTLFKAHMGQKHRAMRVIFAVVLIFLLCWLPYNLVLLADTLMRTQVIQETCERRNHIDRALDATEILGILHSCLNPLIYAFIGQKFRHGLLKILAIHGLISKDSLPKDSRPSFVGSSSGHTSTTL

[25] = biological target: C-C chemokine receptor type 7 (Homo sapiens) (UniProt P32248); assay: Antagonist activity at CCR7 (unknown origin)
[26] = biological target: C-C chemokine receptor type 6 (Homo sapiens) (UniProt P51684); assay: Antagonist activity at CCR6 (unknown origin)
[27] = biological target: C-X-C chemokine receptor type 3 (Homo sapiens) (UniProt P49682); assay: Inhibition of CXCR3 at 20 to 50 uM relative to control
hERG (KCNH2) [28] = biological target: T4, hERG (KCNH2) (Homo sapiens, UniProt Q12809); assay: Inhibition of hERG at 3 uM relative to control; type: toxicity
[29] = Solubility of compound; type: physicochemical
[30] = biological target: Voltage-gated inwardly rectifying potassium channel KCNH2 (Homo sapiens, UniProt Q12809); assay: Inhibition of hERG; type: toxicity
hERG (KCNH2) [31] = biological target: T4, hERG (KCNH2); assay: Inhibition of hERG at 10 uM relative to control; type: toxicity
[32] = AUC in rat at 2 mg/kg, po; type: ADME, organism-based; design: dose 2 mg/kg, route po; conditions: in vivo

T4 sequence (Q12809 whole entry): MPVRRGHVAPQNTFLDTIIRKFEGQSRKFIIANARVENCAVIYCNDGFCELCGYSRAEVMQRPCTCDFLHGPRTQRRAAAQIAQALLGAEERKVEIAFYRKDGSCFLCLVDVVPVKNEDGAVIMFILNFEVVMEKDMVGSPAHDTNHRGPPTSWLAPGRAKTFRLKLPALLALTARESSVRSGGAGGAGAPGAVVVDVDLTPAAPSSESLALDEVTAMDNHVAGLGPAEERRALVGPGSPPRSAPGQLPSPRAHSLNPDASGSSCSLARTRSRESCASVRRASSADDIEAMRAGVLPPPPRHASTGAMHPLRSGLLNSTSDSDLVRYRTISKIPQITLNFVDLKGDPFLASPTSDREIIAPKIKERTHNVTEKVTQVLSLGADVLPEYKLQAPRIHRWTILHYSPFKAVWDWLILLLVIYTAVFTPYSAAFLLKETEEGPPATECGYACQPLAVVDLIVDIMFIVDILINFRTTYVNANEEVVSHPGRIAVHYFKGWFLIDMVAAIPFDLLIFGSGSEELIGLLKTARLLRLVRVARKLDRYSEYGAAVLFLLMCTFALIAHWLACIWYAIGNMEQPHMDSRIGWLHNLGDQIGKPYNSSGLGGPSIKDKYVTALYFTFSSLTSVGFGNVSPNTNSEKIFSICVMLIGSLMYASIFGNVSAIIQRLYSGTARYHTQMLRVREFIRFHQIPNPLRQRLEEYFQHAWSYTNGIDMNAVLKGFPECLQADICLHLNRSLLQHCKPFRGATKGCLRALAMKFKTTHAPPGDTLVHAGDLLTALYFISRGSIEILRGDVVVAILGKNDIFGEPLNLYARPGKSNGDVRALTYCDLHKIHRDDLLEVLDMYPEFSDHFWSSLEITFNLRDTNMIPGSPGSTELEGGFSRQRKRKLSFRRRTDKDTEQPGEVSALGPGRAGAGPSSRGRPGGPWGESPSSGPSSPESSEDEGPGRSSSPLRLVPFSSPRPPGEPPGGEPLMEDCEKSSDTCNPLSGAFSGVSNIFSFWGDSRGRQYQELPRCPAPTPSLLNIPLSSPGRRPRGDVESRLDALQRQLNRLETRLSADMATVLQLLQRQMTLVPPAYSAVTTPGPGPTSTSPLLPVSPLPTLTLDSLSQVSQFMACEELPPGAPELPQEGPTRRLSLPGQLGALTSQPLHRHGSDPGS
C-C chemokine receptor type 7 (Homo sapiens), sequence (P32248 whole entry, looked up): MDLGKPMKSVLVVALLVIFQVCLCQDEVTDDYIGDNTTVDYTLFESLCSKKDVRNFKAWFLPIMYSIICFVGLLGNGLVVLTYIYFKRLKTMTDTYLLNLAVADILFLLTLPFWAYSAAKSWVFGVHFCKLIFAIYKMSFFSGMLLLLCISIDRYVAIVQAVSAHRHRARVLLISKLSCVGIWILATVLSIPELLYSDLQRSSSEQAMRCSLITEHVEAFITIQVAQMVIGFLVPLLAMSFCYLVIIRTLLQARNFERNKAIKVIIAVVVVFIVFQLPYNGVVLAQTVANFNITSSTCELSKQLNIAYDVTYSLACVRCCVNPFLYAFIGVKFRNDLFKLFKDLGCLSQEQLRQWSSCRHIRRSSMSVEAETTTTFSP
Voltage-gated inwardly rectifying potassium channel KCNH2, sequence (Q12809 whole entry): as the sequence (Q12809 whole entry) above
C-C chemokine receptor type 6 (Homo sapiens), sequence (P51684 whole entry, looked up): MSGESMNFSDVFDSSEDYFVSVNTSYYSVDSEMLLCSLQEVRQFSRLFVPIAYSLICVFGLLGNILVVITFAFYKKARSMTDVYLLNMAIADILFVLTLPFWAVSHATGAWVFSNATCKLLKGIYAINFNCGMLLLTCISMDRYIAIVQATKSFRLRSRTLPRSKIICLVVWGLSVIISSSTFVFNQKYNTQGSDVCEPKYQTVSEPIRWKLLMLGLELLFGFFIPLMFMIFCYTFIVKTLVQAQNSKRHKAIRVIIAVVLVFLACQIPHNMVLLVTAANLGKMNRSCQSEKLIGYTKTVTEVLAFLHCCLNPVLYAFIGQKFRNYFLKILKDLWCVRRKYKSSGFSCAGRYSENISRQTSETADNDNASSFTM
C-C chemokine receptor type 4 (Homo sapiens), sequence (P51679 whole entry, looked up): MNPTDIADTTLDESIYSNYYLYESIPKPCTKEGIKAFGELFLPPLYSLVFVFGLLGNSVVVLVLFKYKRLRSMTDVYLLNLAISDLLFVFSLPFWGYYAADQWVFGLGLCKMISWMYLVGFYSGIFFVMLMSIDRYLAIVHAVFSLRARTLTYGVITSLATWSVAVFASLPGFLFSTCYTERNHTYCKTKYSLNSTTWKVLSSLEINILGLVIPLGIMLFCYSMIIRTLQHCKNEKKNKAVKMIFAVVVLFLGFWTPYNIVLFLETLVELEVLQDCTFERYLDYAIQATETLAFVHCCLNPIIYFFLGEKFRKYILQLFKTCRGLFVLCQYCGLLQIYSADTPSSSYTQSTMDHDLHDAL

Compound: N#Cc1ccc(S(=O)(=O)N(Cc2ccc(-c3nnn[nH]3)c(F)c2)Cc2ccccc2F)cc1
- clearance [1]: 28.3 mL/min/kg
- Vd [2]: 1 L/kg
- IC50 [3]: 0.2 µM

Compound: CC(=O)Nc1cccc(/C(C)=N\NC(=O)c2ccc(CN(Cc3ccccc3)S(=O)(=O)c3ccc(Cl)cc3)cc2)c1
- Ki [4]: 6.5 µM
- Ki [5]: 0.2 µM
- IC50 [6]: 0.1 µM
- IC50 [3]: 0.501 µM

Compound: N=C(Nc1ccc(I)cc1)NC1C2CC3CC(C2)CC1C3 (stereo not drawn)
- Ki [7]: 0.158 µM

Compound: C[C@H](c1nc2ncccc2c(=O)n1-c1ccc(Cl)cc1)N(CC1CCS(=O)(=O)CC1)C(=O)Cc1ccc(C(F)(F)F)c(F)c1
- IC50 [11]: 0.00631 µM

Compound: CCCCCCCCCC(=O)N(CCN(C)C)C(C)c1nc2ccccc2c(=O)n1-c1ccc(F)cc1 (stereo not drawn)
- IC50 [5]: 0.398 µM

Compound: CCNC(=O)N1CCCN(c2ccc(C(=O)NCCc3ccc(Cl)cc3Cl)cc2NC(=O)c2cccc(Cl)c2)CC1
- IC50 [5]: 0.0631 µM
- pIC50 [12]: 7

Compound: CC1(C)[C@H]2CC=C(CN3CCC(Nc4nc(-c5cc(C(F)(F)F)cc(C(F)(F)F)c5)ns4)CC3)[C@@H]1C2
- Ki [13]: 0.251 µM
- CLH [14]: 0.016 mL/min/kg
- logD [15]: 5

Compound: CC(=O)c1nc2ccccc2n1CC(=O)c1ccc([N+](=O)[O-])cc1
- IC50 [7]: 3.16 µM

Compound: COc1cc(CN(C[C@H]2CC[C@H](C(=O)O)CC2)[C@H]2CCc3cc(Cl)ccc32)ccc1OCCN1C(=O)CCC1=O
- IC50 [7]: 0.0126 µM

Compound: CCNC(=O)N1CCCN(c2ccc(C(=O)NC(C)C)cc2NC(=O)c2cccc(Cl)c2)CC1
- IC50 [5]: 2 µM

Compound: C[C@H]1CN(c2scnc2-c2nc3ccccc3[nH]2)CCN1C(=O)Cn1ccc2cccnc21
- IC50 [21]: 0.398 µM

Compound: O=C(Nc1ccccc1)N1CCCC(c2ccccc2)(C2CCN(Cc3ccc(Br)cc3)CC2)C1 (stereo not drawn)
- IC50 [6]: 0.0316 µM

Compound: CC[C@H](C)C[C@H](C)C[C@H](C)[C@@H](O[C@@H]1O[C@H](COC(C)=O)[C@@H](O)[C@@H](O)[C@@H]1O)[C@@H](C)/C=C(\C)[C@@H](O)[C@@H](C)/C=C(\C)[C@@H](O)[C@@H](C)/C=C(\C)C(=O)OC[C@@H](O)[C@H](O)[C@H](O)CO
- IC50 [7]: 15.8 µM

Compound: CC[C@H]1CN(c2ncc(C(N)=O)nc2C)CCN1C1CCN(Cc2ccc(Cl)nc2N)CC1
- inhibition at 3 µM (hERG (KCNH2) [28]): 0%

Compound: CC(=O)N1C2C=C(CN3[C@@H]4CC[C@H]3C[C@H](NC(=O)Nc3cc(F)cc(C(F)(F)F)c3)C4)CC1CCC2
- Ki [13]: 0.00631 µM
- logD [15]: 3.1
- solubility [29]: 40 µg/mL (≈ 78.7 µM)

Compound: O=C(Cn1c(=O)[nH]c2ccccc21)N1CCN(c2ncc(Cl)cc2-c2cnc(N3CCC(O)CC3)nc2)CC1
- IC50 [30]: 31.6 µM

Compound: C[C@@H]1CC[C@@]2(OC1)OC1CC3C4CC=C5[C@@H](O[C@@H]6O[C@H](CO)[C@@H](O[C@H]7O[C@H](C)[C@@H](O)[C@H](O)[C@@H]7O)[C@@H](O)[C@H]6O[C@H]6O[C@@H](C)[C@@H](O)[C@H](O)[C@@H]6O)CCC[C@]5(C)C4CC[C@]3(C)C1[C@@H]2C (stereo partly drawn)
- IC50 [7]: 0.501 µM

Compound: CCNc1nnc(-c2cnc(N3C[C@H](CC)N(C4CCN(Cc5ccc(Cl)cc5)CC4)C[C@H]3C)c(C)n2)o1
- inhibition at 10 µM (hERG (KCNH2) [31]): 25%

Compound: CNc1ncc(-c2cc(C(F)(F)F)ccc2N2CCN(C(=O)Cn3nc(C)cc3C)CC2)cn1
- AUC [32]: 271 ng·h/mL

Now from value to molecule:

- AUC [8]: 0.95 µM·h
- Ki [7]: 0.000316 µM
Compound: CCNC(=O)c1cnc(N2CCN(C3CCN(Cc4ccc(Cl)cc4F)CC3)[C@@H](CC)C2)c(Cl)c1

- Ki [7]: 0.000794 µM
- AUC [9]: 5.1 µM·h
Compound: CC[C@H]1CN(c2nc(N)c(C(N)=O)nc2Cl)CCN1C1CCN(Cc2ccc(Cl)cc2)CC1

- half-life [10]: 4 h
- IC50 [5]: 0.00501 µM
- IC50 [11]: 0.00631 µM
Compound: C[C@H](c1nc2ncccc2c(=O)n1-c1ccc(Cl)cc1)N(CC1CCS(=O)(=O)CC1)C(=O)Cc1ccc(F)c(C(F)(F)F)c1

- bioavailability [16]: 57%
- clearance [17]: 95 mL/min/kg
- half-life [18]: 4.9 h
Compound: Cc1cccc2c1n(C)c(=N)n2CC(=O)c1ccc(Cl)cc1

- CLint [14]: 9 µL/min/mg
- CL/F [19]: 9 mL/min/kg
- logD [15]: 2.9
- bioavailability [20]: 69%
Compound: CC(=O)N1C2C=C(CN3[C@@H]4CC[C@H]3C[C@H](Nc3ccc5ccc(OC(C)C)cc5n3)C4)CC1CCC2

- IC50 [22]: 0.398 µM
- IC50 [23]: 0.00126 µM
- IC50 [24]: 0.0631 µM
- IC50 [25]: 0.00794 µM
- IC50 [26]: 0.002 µM
Compound: Cc1ccc(C(Nc2c(Nc3cccc(C(=O)N(C)C)c3O)c(=O)c2=O)C2(C)CCCO2)o1 (stereo not drawn)

- Ki [13]: 0.1 µM
Compound: O=C(Nc1ccc2ccccc2c1)NC1CCN(CC2=CCCCCC2)CC1

- IC50 [5]: 0.02 µM
- IC50 [7]: 0.0501 µM
Compound: CCN(CC)C(=O)[C@@H]1C=C2C3C=CCc4[nH]cc(c43)C[C@H]2N(C(=O)Nc2ccccc2)C1 (stereo partly drawn)

- inhibition at 50 µM [27]: 50%
Compound: Cc1ccc(C(=O)N2CCN(CC(=O)Nc3cc(-c4ccccc4)sc3C(N)=O)CC2)cc1

- Ki [7]: 0.1 µM
Compound: N#Cc1ccc(CN2CCC(N3CCN(c4ncc(C(=O)NCCOc5ccccc5)cc4Cl)CC3)CC2)cc1
